Measurements reported in US20020035998A1, “Method for treatment of cancer and infectious disease” (priority 1995, published 2002).

Legend:
Daudi target cells = experiment: NK cell cytotoxicity (NKCC), 6-hour 51Cr-release assay against Daudi target cells; type: cell-based, human; conditions: for NKCC after treatment with IFN / NKCC (Cell Lysis %) ± SEM after treatment with IFN: agonist 10^−4 M plus IFN-α 25 U/ml; for NKCC after treatment with IFN: Percoll fraction 7; for NKCC after treatment with Medium: agonist 10^−4 M, no IFN, Percoll fraction 7, around 36% monocytes; for potency and effect in intensifying baseline NKCC and restoring the NK cell's response to IFN-α: compared with serotonin, Table 4; for NKCC (Cell Lysis %) ± SEM after treatment with IFN / NKCC (Cell Lysis %) ± SEM after treatment with Ran + IFN / NKCC (Cell Lysis %) ± SEM after treatment with Ran: Percoll fraction 8; for NKCC (Cell Lysis %) ± SEM after treatment with Ran + IFN: agonist 10^−4 M plus ranitidine 10^−4 M plus IFN-α 25 U/ml; for NKCC (Cell Lysis %) ± SEM after treatment with Ran: agonist 10^−4 M plus ranitidine 10^−4 M; for influence on the effect of serotonin on NKCC: ketanserin and ondansetron in equimolar concentrations
From the text: (§1) MNC were obtained from peripheral venous blood from healthy human blood donors by Ficoll-Hypaque centrifuging, followed by Percoll density-gradient fractionation (Timonen and Saksela, 1980, J. Immunol. Methods 36, 285-291; Hellstrand and Hermodsson, 1990, Scand. J. Immunol. 31, 631-645).
(§2) The target cells used in these experiments were K562, an NK-cell sensitive erythroleukemic cell line, or Daudi, a relatively NK-insensitive EBV-transformed B-cell lymphoblastoid cell line.
(§3) The NKCC was determined six times as the specific ^51Cr-release for a NMNC: target-cell ratio of between 30:1 and 3.8:1 in two-fold dilution gradients. The suspensions of MNC/target cells were incubated in microplates at 37° C. for 6 hours (Daudi) or 16 hours (K562). The supernatant solution was then collected and examined for radioactivity in a gamma counter. The maximum ^51Cr-release was measured in target cell cultures treated with Triton X-100. The NKCC was calculated as the cell lysis % by the formula 100×(experimental release−spontaneous release/maximum release−spontaneous release)=cell lysis %.
(§4) In the results shown in Table 2, MNC from five different donors were used. All compounds were added to mixtures of MNC and target cells at the start of a 6 h (Daudi) or 16 h (K562) effecter and target cell incubation. The effecter cells were obtained from Percoll fractions 7-8, containing 33-55% monocytes.
In the experiment shown in Table 3, culture medium (control), histamine (10^−4 M), dimaprit (10^−4 M), ranitidine (ran) (10^−4 M) and/or IFN-α (25 U/ml) were added at the start of a 6-hour ^51Cr release assay using Daudi target cells. The data are representative of three similar experiments. NKCC is given as mean cell lysis %±SEM of six determinations. The effecter cells were recovered from a low-density Percoll fraction 8, containing around 40% monocytes.
In the experiment shown in Table 4, culture medium (control), serotonin, 8-OH-DPAT (+)-ALK and/or IFN-α (25 U/ml) were added at the start of a 6-hour ^51Cr-release assay against Daudi target cells. The NKCC is given as cell lysis %±SEM of six determinations. The effector cells were recovered from the low-density Percoll fraction 7, containing around 36% monocytes.

K562 target cells = experiment: NK cell cytotoxicity (NKCC), 16-hour 51Cr-release assay against K562 target cells; type: cell-based, human
From the text: as §1, §2, §3
A low-density Percoll fraction was separated by counterflow centrifuge elusion (CCE) in a monocyte and in a lymphocyte fraction. The monocyte fraction was concentrated to >90% purity whereupon the contaminating cells consisted of large lymphocytes. The lymphocyte fractions obtained by CCE contained <3% monocytes, determined by morphology and Leu-M3 (CD14) antigen expression. The lymphocytes were […], […] , CD3^+/16^−/56^− T cells (45-50%), CD3^+/16^+/56^+ cells (1-5%), determined by flow cytometry.
J The eluted monocytes and/or the NK cell-concentrated low-density lymphocytes were treated with IFN-α and histamine/serotonin. The compounds were added, separately or in combination, to mixtures of MNC and K562 target cells at the start of a 16-hour ^51Cr-release assay. The cytotoxicity against K562 in the NK cell-concentrated lymphocyte fraction was increased by IFN-α and unaffected by histamine or serotonin. […] The addition of eluted monocytes to the NK cell concentrated lymphocytes suppressed the baseline cytotoxicity to K562.
In the experiments reported in Table 1, eluted lymphocytes were mixed with monocytes as shown in the table, in a total volume of 150 μl. The data are NKCC (mean ±SEM) of six determinations. Serotonin 10^−4 M and/or IFN-α (25 U/ml) was added at the start of a 16-hour microcytotoxicity test against 10^4 K562 target cells.
as §4
Cells from the monocyte-containing Percoll fraction 8 were incubated with culture medium, histamine (10^−4 M) or serotonin (10^−4 M) in the presence of IFN-α (0-100 U/ml). The data shown are NKCC (cell lysis %; mean±SEM of six determinations). The compounds were added at the start of a 16 h microcytotoxicity test against K 562 target cells.

[1] = named agent(s) only, no further additive: histamine, dimaprit, ranitidine 10^−4 M, IFN-α 25 U/ml, Daudi 6 h, Percoll fraction 8, around 40% monocytes
[2] = mixtures of eluted monocytes and NK cell-enriched lymphocytes

CCCN(CCC)[C@H]1CCc2cccc(O)c2[C@H]1C (relative stereo) [(+)-ALK-3, cis-8-hydroxy-1-methyl-2-(di-n-propylamino)tetralin, reference compound]
NKCC after treatment with IFN (Daudi target cells; Daudi 6 h): 40.4 ± 1% | NKCC after treatment with Medium (Daudi target cells; Daudi 6 h): 9.1 ± 1% | potency and effect in intensifying baseline NKCC and restoring the NK cell's response to IFN-α (Daudi target cells): comparable to that of serotonin

CCCN(CCC)C1CCc2cccc(O)c2C1 (stereo not drawn) [8-OH-DPAT, 8-hydroxy-2-(di-n-propylamino)tetralin, reference compound]
NKCC after treatment with IFN (Daudi target cells; Daudi 6 h): 43.3 ± 1% | NKCC after treatment with Medium (Daudi target cells; Daudi 6 h): 8.8 ± 1% | potency and effect in intensifying baseline NKCC and restoring the NK cell's response to IFN-α (Daudi target cells): comparable to that of serotonin

CN(C)CCCSC(=N)N [Dimaprit, dimaprit, reference compound]
NKCC (Cell Lysis %) ± SEM after treatment with IFN (Daudi target cells; Daudi 6 h): 32.6 ± 1% | NKCC (Cell Lysis %) ± SEM after treatment with Ran + IFN (Daudi target cells; Daudi 6 h): 0.5 ± 0.5% | NKCC (Cell Lysis %) ± SEM after treatment with Ran (Daudi target cells; Daudi 6 h): 0.4 ± 0.4% | NKCC (cell lysis % ± SEM) (Daudi target cells; [1]): 6.4 ± 1% | effect of histamine on monocyte-induced suppression of resting and IFN-α-activated NK cells: influence of the agent (Daudi target cells; simultaneous treatment, Table 3): imitated

NCCc1c[nH]cn1 [Histamine, histamine]
NKCC (cell lysis % ± SEM) (K562 target cells; Exp 1, K562, 15:1, histamine 10^−4 M plus IFN 25 U/ml): 76.4 ± 3% | NKCC (cell lysis % ± SEM) (K562 target cells; Exp 1, K562, 15:1, histamine 10^−5 M plus IFN 25 U/ml): 74.1 ± 1% | NKCC (cell lysis % ± SEM) (K562 target cells; Exp 1, K562, 15:1, histamine 10^−5 M, medium (no IFN)): 54.7 ± 1% | NKCC (cell lysis % ± SEM) (K562 target cells; Exp 1, K562, 15:1, histamine 10^−6 M plus IFN 25 U/ml): 66.0 ± 2% | NKCC (cell lysis % ± SEM) (K562 target cells; Exp 1, K562, 15:1, histamine 10^−6 M, medium (no IFN)): 39.2 ± 1% | NKCC (cell lysis % ± SEM) (K562 target cells; Exp 1, K562, MNC/target 15:1, histamine 10^−4 M, medium (no IFN), monocyte-containing Percoll fractions 7-8): 55.5 ± 1% | NKCC (cell lysis % ± SEM) (K562 target cells; Exp 2, K562, 15:1, histamine 10^−4 M plus IFN 25 U/ml): 67.9 ± 2% | NKCC (cell lysis % ± SEM) (K562 target cells; Exp 2, K562, 15:1, histamine 10^−4 M, medium (no IFN)): 32.4 ± 1% | NKCC (cell lysis % ± SEM) (K562 target cells; Exp 2, K562, 15:1, histamine 10^−5 M plus IFN 25 U/ml): 66.2 ± 1% | NKCC (cell lysis % ± SEM) (K562 target cells; Exp 2, K562, 15:1, histamine 10^−5 M, medium (no IFN)): 27.4 ± 1% | NKCC (cell lysis % ± SEM) (K562 target cells; Exp 2, K562, 15:1, histamine 10^−6 M plus IFN 25 U/ml): 55.4 ± 1% | NKCC (cell lysis % ± SEM) (K562 target cells; Exp 2, K562, 15:1, histamine 10^−6 M, medium (no IFN)): 23.2 ± 2% | NKCC (cell lysis % ± SEM) (K562 target cells; Exp 3, K562, 15:1, histamine 10^−4 M plus IFN 25 U/ml): 71.9 ± 1% | NKCC (cell lysis % ± SEM) (K562 target cells; Exp 3, K562, 15:1, histamine 10^−4 M, medium (no IFN)): 43.3 ± 1% | NKCC (cell lysis % ± SEM) (K562 target cells; Exp 3, K562, 15:1, histamine 10^−5 M plus IFN 25 U/ml): 66.5 ± 2% | NKCC (cell lysis % ± SEM) (K562 target cells; Exp 3, K562, 15:1, histamine 10^−5 M, medium (no IFN)): 38.6 ± 1% | NKCC (cell lysis % ± SEM) (K562 target cells; Exp 3, K562, 15:1, histamine 10^−6 M plus IFN 25 U/ml): 56.3 ± 2% | NKCC (cell lysis % ± SEM) (K562 target cells; Exp 3, K562, 15:1, histamine 10^−6 M, medium (no IFN)): 29.4 ± 1% | cytotoxicity against K562 in the NK cell-concentrated lymphocyte fraction (K562 target cells; eluted lymphocytes without monocytes, 16-hour assay): unaffected | basal cytotoxicity of lymphocytes in mixtures of monocytes and lymphocytes (K562 target cells; [2]): restored | monocyte induced inhibition of the NK cell response to IFN-α (K562 target cells; [2]): eliminated | NKCC (cell lysis % ± SEM) (Daudi target cells; Exp 4, Daudi, 30:1, histamine 10^−4 M plus IFN 25 U/ml): 31.7 ± 1% | NKCC (cell lysis % ± SEM) (Daudi target cells; Exp 4, Daudi, 30:1, histamine 10^−5 M plus IFN 25 U/ml): 28.3 ± 1% | NKCC (cell lysis % ± SEM) (Daudi target cells; Exp 4, Daudi, 30:1, histamine 10^−5 M, medium (no IFN)): 3.5 ± 2% | NKCC (cell lysis % ± SEM) (Daudi target cells; Exp 4, Daudi, 30:1, histamine 10^−6 M plus IFN 25 U/ml): 14.1 ± 1% | NKCC (cell lysis % ± SEM) (Daudi target cells; Exp 4, Daudi, 30:1, histamine 10^−6 M, medium (no IFN)): 1.1 ± 0.3% | NKCC (cell lysis % ± SEM) (Daudi target cells; Exp 4, Daudi, MNC/target 30:1, histamine 10^−4 M, medium (no IFN)): 4.4 ± 1% | NKCC (cell lysis % ± SEM) (Daudi target cells; Exp 5, Daudi, 30:1, histamine 10^−4 M plus IFN 25 U/ml): 61.3 ± 3% | NKCC (cell lysis % ± SEM) (Daudi target cells; Exp 5, Daudi, 30:1, histamine 10^−4 M, medium (no IFN)): 13.5 ± 1% | NKCC (cell lysis % ± SEM) (Daudi target cells; Exp 5, Daudi, 30:1, histamine 10^−5 M plus IFN 25 U/ml): 52.3 ± 2% | NKCC (cell lysis % ± SEM) (Daudi target cells; Exp 5, Daudi, 30:1, histamine 10^−5 M, medium (no IFN)): 9.7 ± 1% | NKCC (cell lysis % ± SEM) (Daudi target cells; Exp 5, Daudi, 30:1, histamine 10^−6 M plus IFN 25 U/ml): 31.7 ± 1% | NKCC (cell lysis % ± SEM) (Daudi target cells; Exp 5, Daudi, 30:1, histamine 10^−6 M, medium (no IFN)): 2.5 ± 1% | NKCC (Cell Lysis %) ± SEM after treatment with IFN (Daudi target cells; Daudi 6 h): 31.7 ± 0.3% | NKCC (Cell Lysis %) ± SEM after treatment with Ran + IFN (Daudi target cells; Daudi 6 h): 1.6 ± 0.2% | NKCC (Cell Lysis %) ± SEM after treatment with Ran (Daudi target cells; Daudi 6 h): 1.5 ± 0.3% | NKCC (cell lysis % ± SEM) (Daudi target cells; [1]): 9.4 ± 0.3%

O=C(c1ccc(F)cc1)C1CCN(CCn2c(=O)[nH]c3ccccc3c2=O)CC1 [Ketanserin, reference compound]
influence on the effect of serotonin on NKCC (Daudi target cells; ranitidine 10^−4 M): did not influence the effect of serotonin

CNC(=C[N+](=O)[O-])NCCSCc1ccc(CN(C)C)o1 [Ran, ranitidine, reference compound]
NKCC (cell lysis % ± SEM) (Daudi target cells; [1]): 0.0 ± 0.1%

Cc1nccn1CC1CCc2c(c3ccccc3n2C)C1=O (stereo not drawn) [ondansetron, reference compound]
influence on the effect of serotonin on NKCC (Daudi target cells; ranitidine 10^−4 M): did not influence the effect of serotonin
